In US9125429B2, “High-potency sweetener composition with fatty acid and compositions sweetened therewith” (THE COCA-COLA COMPANY, priority 2005, dated 2015):

Tested on: panel of experts in the sensory evaluation of foods and beverages
Test: Sensory evaluation of sweetness linger and taste characteristics by expert panel
Type: in vivo
Set-up: key: 0=no sweetness linger; 1=very slight sweetness linger; 2=slight sweetness linger; 3=moderate sweetness linger; 4=moderately high sweetness linger; 5=high sweetness linger

## rebaudioside A
Example Set G: 400 ppm REBA in citric acid/potassium citrate composition equivalent to diet lemon-lime beverage (sugar control 8 g in 100 ml citrate buffer), scale 0-5, sweetness 3-4 min after water rinse
  sweetness linger: 5
Example Set H: REBA (500 ppm; H41 360 ppm) in carbon-treated water, phosphoric acid (75%) to pH 2.4-2.5 (sugar control 10 g in 100 ml), scale 0-5
  sweetness linger: 5
